Residues, ends and D or L forms follow the SMILES beside them.
Legend:
Format in all cases: cell-based
[1] = test system: T47D; test: In vitro cytotoxicity assay (CCK8 cell viability), endogenous cell line T47D; details: Homo sapiens, 72 h
Method: (§1) Cells were seeded in Nunclon Delta Surface 96 well plates at 1000 (HEK293 and HEK293/PRLR) or 6000 (T47D) cells per well, and cells were grown overnight in complete growth media. For cell viability curves, serially diluted conjugates or free representative payloads were added to the cells at final concentrations ranging from 100 nM to 5 pM and incubated for 3 days. To measure viability, cells were incubated with CCK8 (Dojindo) for the final 1-3 hours and the absorbance at 450 nm (OD450) was determined on a Victor X4 (PerkinElmer). Background OD450 levels (CCK8) from digitonin ([…]) treated cells were subtracted from all wells and viability is expressed as a percentage of the untreated controls. IC50 values were determined from a four-parameter logistic equation over a 10-point response curve (GraphPad Prism). Maytansinoid conjugate curves and IC50 values are corrected for payload equivalents based on the UV DAR value. For the auristatin (MMAF) conjugate, the IC50 values are assigned a DAR of 1 (i.e., equal to antibody concentration) since a good estimate cannot be obtained by UV or mass spectrometry.

[2] = test system: HEK293/hPRLR; test: In vitro cytotoxicity assay (CCK8 cell viability), engineered HEK293/hPRLR cells; details: Homo sapiens, HEK293, 72 h
Method: as §1

[3] = test system: HEK293; test: In vitro cytotoxicity assay (CCK8 cell viability), native HEK293 cells (no target expressed); details: Homo sapiens, HEK293, 72 h
Method: as §1

Measured: IC50

CC[C@H](C)[C@@H]([C@@H](CC(=O)N1CCC[C@H]1[C@H](OC)[C@@H](C)C(=O)N[C@@H](Cc1ccccc1)C(=O)O)OC)N(C)C(=O)[C@@H](NC(=O)[C@@H](NC)C(C)C)C(C)C [compound 27, Monomethyl Auristatin F] (HELM PEPTIDE1{[meV].V.[CC[C@H](C)[C@@H]([C@@H](CC(=O)[*:2])OC)N(C)[*:1]].[CO[C@H]([C@@H](C)C(=O)[*:2])[C@@H]1CCCN1[*:1]].F}$$$$V2.0)
> 0.1 µM: all assays above

Reference: patent publication US10752690B2, “Biologically active molecule conjugates, reagents and methods of manufacture, and therapeutic uses” (REGENERON PHARMACEUTICALS, INC., priority 2014, dated 2020)
